These results are taken from US8119645B2, “Fungicide hydroximoyl-tetrazole derivatives” (Bayer Cropscience AG, priority 2006, dated 2012).

The nature of this data set: logP by reversed-phase HPLC (EEC Directive 79/831 Annex V.A8). Format: physicochemical. Conditions: HPLC C18, 40° C., 0.1% aqueous formic acid / acetonitrile gradient.
Experimental: Temperature: 40° C.; Mobile phases: 0.1% aqueous formic acid and acetonitrile; linear gradient from 10% acetonitrile to 90% acetonitrile.
By LogP is commonly meant a log measure of how a compound divides between an organic and an aqueous phase. A high value points to a more lipophilic compound. In turn, `CCCCCCCCC(=O)Nc1nc(CON=C(c2cc(-c3ccccc3)c(Cl)s2)n2nnnc2C)cs1` [Compound 78] returned a LogP of 5.94. In turn, `CCCC(=O)Nc1nc(CON=C(c2cc(-c3ccccc3)c(Cl)s2)n2nnnc2C)cs1` [Compound 79] displayed a log partition coefficient (LogP) of 4.18.

Consider `CCCCCC(=O)Nc1nc(CON=C(c2cc(-c3ccccc3)c(Cl)s2)n2nnnc2C)cs1` [Compound 80], for which the LogP came out at 4.88. Molecule `Cc1nnnn1C(=NOCc1csc(N)n1)c1ccc(-c2ccc(Cl)c(Cl)c2)o1` [Compound 81] returned a LogP of 2.83.

`CCCC(=O)Nc1nc(CON=C(c2ccc(-c3ccc(Cl)c(Cl)c3)o2)n2nnnc2C)cs1` [Compound 82] displayed a LogP of 4.11.

Regarding `CCCCCCCCC(=O)Nc1nc(CON=C(c2ccc(-c3ccc(Cl)c(Cl)c3)o2)n2nnnc2C)cs1` [Compound 83], the log partition coefficient (LogP) is recorded as 5.85. With `Cc1nnnn1C(=NOCc1csc(NC(=O)C2CC2)n1)c1ccc(-c2ccc(Cl)c(Cl)c2)o1` [Compound 84], the LogP is 3.83. As for `CCCCCC(=O)Nc1nc(CON=C(c2ccc(-c3ccc(Cl)c(Cl)c3)o2)n2nnnc2C)cs1` [Compound 85], the figure is 4.78.

`Cc1nnnn1C(=NOCc1csc(N)n1)c1ccc(Br)s1` [Compound 86]: the LogP was 2.07. Molecule `Cc1nnnn1C(=NOCc1csc(NC(=O)C(C)(C)C)n1)c1ccc(Br)s1` [Compound 87] had a log partition coefficient (LogP) of 3.74. Consider `Cc1nnnn1C(=NOCc1csc(NC(=O)CCCc2ccccc2)n1)c1ccc(Br)s1` [Compound 88], for which the LogP is 4.04. In the case of `Cc1nnnn1C(=NOCc1csc(NC(=O)CCc2ccccc2)n1)c1ccc(Br)s1` [Compound 89] it was 3.76; in that of `Cc1nnnn1C(=NOCc1csc(NC(=O)C2CCCC2)n1)c1ccc(Br)s1` [Compound 90], 3.66; in that of `Cc1nnnn1C(=NOCc1csc(NC(=O)c2ccccc2)n1)c1ccc(Br)s1` [Compound 91], 3.61. With `CCCCCC(=O)Nc1nc(CON=C(c2ccc(Br)s2)n2nnnc2C)cs1` [Compound 92], the LogP is recorded as 3.92. With `Cc1nnnn1C(=NOCc1csc(NC(=O)Cc2ccccc2)n1)c1ccc(Br)s1` [Compound 93], the lipophilicity (LogP) was 3.53.

Molecule `Cc1nnnn1C(=NOCc1csc(NC(=O)C(C)C)n1)c1ccc(Br)s1` [Compound 94] had a lipophilicity (LogP) of 3.22. Regarding `Cc1nnnn1C(=NOCc1csc(NC(=O)COCc2ccccc2)n1)c1ccc(Br)s1` [Compound 95], the LogP came out at 3.76.

As to `Cc1nnnn1C(=NOCc1csc(NC(=O)C2CC2)n1)c1ccc(Br)s1` [Compound 96], the LogP worked out at 3.04.

The molecule `C=CCC(=O)Nc1nc(CON=C(c2ccc(Br)s2)n2nnnc2C)cs1` [Compound 97] gave a log partition coefficient (LogP) of 3.08. As to `COCCOCC(=O)Nc1nc(CON=C(c2ccc(Br)s2)n2nnnc2C)cs1` [Compound 98], the lipophilicity (LogP) came out at 2.94.

Turning to `COCCOC(=O)Nc1nc(CON=C(c2ccc(Br)s2)n2nnnc2C)cs1` [Compound 99], the LogP was 3.1. Regarding `Cc1nnnn1C(=NOCc1csc(N)n1)c1ccc(Cl)s1` [Compound 100], the LogP came out at 2.02. Take `Cc1nnnn1C(=NOCc1csc(NC(=O)C2CC2)n1)c1ccc(Cl)s1` [Compound 101]: the LogP came to 3. Take `Cc1nnnn1C(=NOCc1csc(NC(=O)C(C)(C)C)n1)c1ccc(Cl)s1` [Compound 102]: the LogP worked out at 3.73. `Cc1nnnn1C(=NOCc1csc(NC(=O)Cc2ccccc2)n1)c1ccc(Cl)s1` [Compound 103] displayed a LogP of 3.62.

`Cc1nnnn1C(=NOCc1csc(NC(=O)NCCc2ccccc2)n1)c1ccc(Cl)s1` [Compound 104] showed a log partition coefficient (LogP) of 3.64. As for `Cc1nnnn1C(=NOCc1csc(NC(=O)NCc2ccccc2)n1)c1ccc(Cl)s1` [Compound 105], the LogP is recorded as 3.32. In turn, `CCCCCC(=O)Nc1nc(CON=C(c2ccc(Cl)s2)n2nnnc2C)cs1` [Compound 106] had a LogP of 4.12. Molecule `Cc1nnnn1C(=NOCc1csc(NC(=O)CCCc2ccccc2)n1)c1ccc(Cl)s1` [Compound 107] registered a LogP of 4.12. Take `Cc1nnnn1C(=NOCc1csc(NC(=O)CCc2ccccc2)n1)c1ccc(Cl)s1` [Compound 108]: the LogP was found to be 3.85. Consider `Cc1nnnn1C(=NOCc1csc(NC(=O)OCc2ccccc2)n1)c1ccc(Cl)s1` [Compound 109], for which the LogP is 3.93.

As for `Cc1nnnn1C(=NOCc1csc(NC(=O)OCCc2ccccc2)n1)c1ccc(Cl)s1` [Compound 110], the log partition coefficient (LogP) turned out to be 4.24. In the case of `COCCOCC(=O)Nc1nc(CON=C(c2ccc(Cl)s2)n2nnnc2C)cs1` [Compound 111] it was 2.88; in that of `COCCOC(=O)Nc1nc(CON=C(c2ccc(Cl)s2)n2nnnc2C)cs1` [Compound 112], 3.05. As to `Cc1ccc(C(=NOCc2csc(N)n2)n2nnnc2C)s1` [Compound 113], the log partition coefficient (LogP) is 1.8. The molecule `CCCC(=O)Nc1nc(CON=C(c2ccc(C)s2)n2nnnc2C)cs1` [Compound 114] yielded a LogP of 2.88. `Cc1ccc(C(=NOCc2csc(NC(=O)C(C)(C)C)n2)n2nnnc2C)s1` [Compound 115] came in with a lipophilicity (LogP) of 3.42. For `Cc1ccc(C(=NOCc2csc(NC(=O)Cc3ccccc3)n2)n2nnnc2C)s1` [Compound 116], the LogP is recorded as 3.35. As for `Cc1ccc(C(=NOCc2csc(NC(=O)NCc3ccccc3)n2)n2nnnc2C)s1` [Compound 117], the figure is 3.17. In the case of `Cc1ccc(C(=NOCc2csc(NC(=O)NCCc3ccccc3)n2)n2nnnc2C)s1` [Compound 118] it was 3.33; in that of `Cc1ccc(C(=NOCc2csc(NC(=O)C3CC3)n2)n2nnnc2C)s1` [Compound 119], 2.84; in that of `CCCCCC(=O)Nc1nc(CON=C(c2ccc(C)s2)n2nnnc2C)cs1` [Compound 120], 3.76. Consider `Cc1ccc(C(=NOCc2csc(NC(=O)CCCc3ccccc3)n2)n2nnnc2C)s1` [Compound 121], for which the LogP was 3.81. For `Cc1ccc(C(=NOCc2csc(NC(=O)CCc3ccccc3)n2)n2nnnc2C)s1` [Compound 122], the LogP was found to be 3.54. As for `Cc1ccc(C(=NOCc2csc(NC(=O)OCCc3ccccc3)n2)n2nnnc2C)s1` [Compound 123], the figure is 3.88.

`Cc1ccc(C(=NOCc2cccc(N)n2)n2nnnc2C)s1` [Compound 124] yielded a LogP of 1.51. As to `Cc1ccc(C(=NOCc2cccc(NC(=O)OCCc3ccccc3)n2)n2nnnc2C)s1` [Compound 125], the log partition coefficient (LogP) worked out at 4.02.

`CCCCCOC(=O)Nc1cccc(CON=C(c2ccc(C)s2)n2nnnc2C)n1` [Compound 126] returned a LogP of 4.34. As for `CCCCCC(=O)Nc1cccc(CON=C(c2ccc(C)s2)n2nnnc2C)n1` [Compound 127], the figure is 3.79. With `Cc1ccc(C(=NOCc2cccc(NC(=O)NCCc3ccccc3)n2)n2nnnc2C)s1` [Compound 128], the LogP is 3.06. As for `COCCOCC(=O)Nc1nc(CON=C(c2ccc(C)s2)n2nnnc2C)cs1` [Compound 129], the LogP is listed as 2.6.

In the case of `COCCOC(=O)Nc1nc(CON=C(c2ccc(C)s2)n2nnnc2C)cs1` [Compound 130], the lipophilicity (LogP) came to 2.76. On to `Cc1nnnn1C(=NOCc1csc(N)n1)c1ccc(-c2ccccc2)o1` [Compound 131], for which the LogP came out at 2.13.
